The results in this text go back to patent publication US20170190671A1, “BIS(ARYL)CATECHOL DERIVATIVES AS HERBICIDES” (E I DU PONT DE NEMOURS AND COMPANY, priority 2014, published 2017).

Usually melting point stands for the temperature of the solid-liquid transition.

The test system of one data set is wild oat (Avena fatua). Nature of the data set: Test C postemergence. The class given is in vivo. The conditions noted are these: Avena fatua, post-emergence, Postemergence, scale 0 to 100, read-out: Plant response rating, Oat, Wild.
The subject of data set [1] is pigweed (Amaranthus retroflexus). Nature of the data set: Test C postemergence. It counts as in vivo. The settings on record: Amaranthus retroflexus, post-emergence, 336 h, Postemergence, scale 0 to 100, read-out: Plant response rating, Pigweed.
In data set [2] the test system is chickweed (common chickweed, Stellaria media). Nature of the data set: Test C postemergence. It counts as in vivo. The conditions noted are these: Stellaria media, post-emergence, Postemergence, scale 0 to 100, read-out: Plant response rating, Chickweed.
Data set [3] has as its system yellow nutsedge (Cyperus esculentus). Nature of the data set: Test C postemergence. It counts as in vivo. The settings on record: Cyperus, post-emergence, 336 h, Postemergence, scale 0 to 100, read-out: Plant response rating, Nutsedge, Yellow.
For a further data set, the system named is kochia (Kochia scoparia). Nature of the data set: Test C postemergence. The class given is in vivo. The settings on record: Bassia scoparia, post-emergence, Postemergence, scale 0 to 100, read-out: Plant response rating, Kochia.
The subject of data set [4] is waterhemp (common waterhemp, Amaranthus rudis). Nature of the data set: Test C postemergence. The class given is in vivo. The conditions noted are these: Amaranthus tuberculatus, post-emergence, Postemergence, scale 0 to 100, read-out: Plant response rating, Waterhemp.
Data set [5] has as its system galium (catchweed bedstraw, Galium aparine). Nature of the data set: Test C postemergence. The class given is in vivo. The conditions noted are these: Galium, post-emergence, 336 h, Postemergence, scale 0 to 100, read-out: Plant response rating, Galium.

Compound `Fc1ccc(F)c(Oc2ncc(Br)cn2)c1Oc1ncc(Br)cn1` [Compound 31] yielded a melting point of 166 to 170 °C.
Consider `N#Cc1cccc(Oc2ncc(Cl)cn2)c1Oc1cccc(Cl)c1` [Compound 37], for which the melting point lay in the range of 122 to 126 °C.
Still for that read-out and setting: for `FC(F)c1cnc(Oc2c(Br)cccc2Oc2ncc(Cl)cn2)s1` [Compound 10, 2-[3-bromo-2-[[5-(difluoromethyl)-2-thiazolyl]oxy]phenoxy]-5-chloropyrimidine] the value was 113 to 116 °C.
The same measure, in the same setting: the result for `N#Cc1cccc(Oc2ncc(Cl)cn2)c1Oc1ccccc1Cl` [Compound 40] reads 120 to 123 °C.
`N#Cc1cccc(Oc2ncc(Cl)cn2)c1Oc1ccc(Cl)cc1` [Compound 36] registered a melting point of 172 to 175 °C. Also, the pest or weed control at 31 g/ha with wild oat (Avena fatua) (31 g ai/ha) is 30%. Further, the pest or weed control at 62 g/ha in the data set with wild oat (Avena fatua) (62 g ai/ha) came out at 20%. Besides, the pest or weed control at 125 g/ha in the data set with wild oat (Avena fatua) (125 g ai/ha) turned out to be 35%. The pest or weed control at 31 g/ha in data set [1] (31 g ai/ha) stood at 90%. The pest or weed control at 62 g/ha in data set [1] (62 g ai/ha) stood at 98%. The pest or weed control at 125 g/ha in data set [1] (125 g ai/ha) turned out to be 100%. Moreover, in data set [2] (16 g ai/ha), the pest or weed control at 16 g/ha stood at 70%. In data set [2] (31 g ai/ha), the pest or weed control at 31 g/ha was 75%. Besides, in data set [2] (62 g ai/ha), the pest or weed control at 62 g/ha was determined as 80%. Besides, the pest or weed control at 125 g/ha in data set [2] (125 g ai/ha) was 100%. The pest or weed control at 31 g/ha in data set [3] (31 g ai/ha) turned out to be 5%. Also, the pest or weed control at 62 g/ha in data set [3] (62 g ai/ha) came to 10%. Further, the pest or weed control at 125 g/ha in data set [3] (125 g ai/ha) is 15%. For the same compound, the pest or weed control at 16 g/ha in the data set with kochia (Kochia scoparia) (16 g ai/ha) is 90%. Moreover, the pest or weed control at 31 g/ha in the data set on kochia (Kochia scoparia) (31 g ai/ha) amounted to 95%. Also, the pest or weed control at 62 g/ha in the data set with kochia (Kochia scoparia) (62 g ai/ha) was 95%. For the same compound, the pest or weed control at 125 g/ha with kochia (Kochia scoparia) (125 g ai/ha) was 100%. In addition, the pest or weed control at 31 g/ha in data set [4] (31 g ai/ha) was 90%. Further, the pest or weed control at 62 g/ha in data set [4] (62 g ai/ha) amounted to 100%. Also, in data set [4] (125 g ai/ha), the pest or weed control at 125 g/ha is 98%. The pest or weed control at 16 g/ha in data set [5] (16 g ai/ha) is 80%. Besides, the pest or weed control at 31 g/ha in data set [5] (31 g ai/ha) came out at 80%. In addition, the pest or weed control at 62 g/ha in data set [5] (62 g ai/ha) came out at 95%. Besides, in data set [5] (125 g ai/ha), the pest or weed control at 125 g/ha stood at 95%.
